Results taken from US8940510B2, “Spray dried microbes and methods of preparation and use” (University of Iowa Research Foundation, priority 2007, dated 2015).

Experiments:
glycolate oxidase [1] = biological target: T1, glycolate oxidase (Spinacia oleracea, UniProt P05414); assay: Glycolate oxidase (DCIP) assay on Pichia pastoris whole-cell biocatalyst; assay type: biochemical, spinach; conditions: racemic substrate, lactic acid is 100%; for Relative GO activity, Permeabilized: permeabilized cells; for Relative GO activity, Spray-dried: spray-dried cells
T1 construct: expressed in transfected cells; host or cells: Pichia pastoris, single recombinant (NRRL Y-21001) or double recombinant, spray-dried and/or BAC-permeabilised whole cells
T1 sequence (P05414 1-369): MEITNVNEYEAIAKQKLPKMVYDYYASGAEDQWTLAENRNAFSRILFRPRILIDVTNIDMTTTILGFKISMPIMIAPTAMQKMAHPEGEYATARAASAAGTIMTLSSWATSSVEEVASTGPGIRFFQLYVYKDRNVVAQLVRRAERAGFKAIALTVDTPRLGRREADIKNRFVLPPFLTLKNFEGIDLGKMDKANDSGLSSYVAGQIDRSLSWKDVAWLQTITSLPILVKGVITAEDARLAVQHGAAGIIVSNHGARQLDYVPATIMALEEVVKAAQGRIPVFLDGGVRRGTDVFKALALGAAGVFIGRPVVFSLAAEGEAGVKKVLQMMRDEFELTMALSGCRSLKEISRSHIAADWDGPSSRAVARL
Experimental: Glycolate Oxidase Assay • 1. Weigh approximately 40 mg spray-dried cells (record exact weight) into a 10 mL centrifuge tube. • 2. Add 8.0 mL of DCIP assay solution (0.12 mM 2,6-dichloroindophenol and 80 mM Tris, pH 8.3). A DCIP solution that is stored at 4° C. may be used for up to 2 weeks. • 3. Mix to suspend cells, then remove 50 μL of suspension (about 0.25 mg dry cells) and place in 3.0 mL quartz cuvette with flea stirrer. Add 2.0 mL of DCIP assay solution. Cap with septum and bubble with nitrogen for 3 minutes. • 4. […]
In initial work (in the absence of spray-drying), after fermentation, cells were recovered by solid/liquid separation, and benzalkonium chloride (BAC) detergent was used to permeabilize cells for the enzyme reaction. […] Thus, another experiment (see below) compared spray-dried cells to several other methods of cell preparation: a) not spray-dried and not BAC treated, b) not spray-dried and treated with BAC, and c) spray-dried and treated with BAC. The spray-dried cells were treated with BAC after spray-drying to determine if spray-drying completely permeabilized the cells.
Detergent Cell Permeabilization • 1. Prepare mixture of 10 weight % cells/volume 50 mM phosphate buffer (pH 7.0) at room temperature. Add 0.1% (w/v) benzalkonium chloride. • 2. Stir or mix slowly for 60 minutes at room temperature, 25° C. • 3. Centrifuge (9950×g for 10 minutes at 5° C.), decant, and re-suspend cells three times (10% w/v) in 50 mM phosphate buffer (pH 7.0) at 5° C., centrifuge, decant. • 4. Permeabilized cells may be used immediately or stored up to one year at −80° C. prior to use.

glycolate oxidase [2] = conditions: 100 mM; enzyme extracted from tobacco leaves; cited from earlier work

| Relative GO activity, Permeabilized (glycolate oxidase [1]) | Relative GO activity, Spray-dried (glycolate oxidase [1]) | Compound | Effect on the catalytic action of glycolate oxidase (glycolate oxidase [2]) |
| --- | --- | --- | --- |
| 1% | 2% | CC(C)C(O)C(=O)O (racemic) [2-Hydroxy-3-methylbutyric acid] |  |
| 18% | 26% | O=C(O)C(O)Cc1c[nH]c2ccccc12 (racemic) [3-Indolelactic acid] |  |
| 25% | 37% | O=C(O)C(O)Cc1ccccc1 (racemic) [3-Phenyllactic acid] |  |
| 100% | 121% | O=C(O)C(O)CCl (racemic) [β-Chlorolactic acid] |  |

Second part, the compound before the results:

| Compound | Relative GO activity, Permeabilized (glycolate oxidase [1]) | Relative GO activity, Spray-dried (glycolate oxidase [1]) | Effect on the catalytic action of glycolate oxidase (glycolate oxidase [2]) |
| --- | --- | --- | --- |
| CCC(O)C(=O)O (racemic) [2-Hydroxybutyric acid] | 91% | 129% |  |
| CCCCCCCCC(O)C(=O)O (racemic) [2-Hydroxydecanoic acid] | 40% | 49% |  |
| CC(O)C(=O)O (racemic) [Lactic acid] | 100% | 100% |  |
| O=C(O)C(O)c1ccccc1 (racemic) [Mandelic acid] | 3% | 3% |  |
| O=C(O)CO [Glycolic acid] | 90% | 94% |  |
| O=C(O)C(=O)O [Oxalic acid] |  |  | inhibit |
| O=C(O)C(O)Cc1ccc(O)cc1 (centres unmarked) [p-Hydroxyphenyllactic acid] | 26% | 38% |  |
| Trifluorolactic acid | 11% | 2% |  |
